The text below walks through data of patent publication US9040545B2, “Heterocyclyl pyrazolopyrimidine analogues as selective JAK inhibitors” (Cellzome Limited, priority 2010, dated 2015).

In test [1] the target is T1, Aurora A (Homo sapiens, UniProt O14965).
T1 construct: cell lysates from Jurkat cells (ATCC TIB-152) used; endogenous in cells; host or cells: Jurkat cells (ATCC TIB-152), treated with pervanadate
T1 sequence (O14965 1-403): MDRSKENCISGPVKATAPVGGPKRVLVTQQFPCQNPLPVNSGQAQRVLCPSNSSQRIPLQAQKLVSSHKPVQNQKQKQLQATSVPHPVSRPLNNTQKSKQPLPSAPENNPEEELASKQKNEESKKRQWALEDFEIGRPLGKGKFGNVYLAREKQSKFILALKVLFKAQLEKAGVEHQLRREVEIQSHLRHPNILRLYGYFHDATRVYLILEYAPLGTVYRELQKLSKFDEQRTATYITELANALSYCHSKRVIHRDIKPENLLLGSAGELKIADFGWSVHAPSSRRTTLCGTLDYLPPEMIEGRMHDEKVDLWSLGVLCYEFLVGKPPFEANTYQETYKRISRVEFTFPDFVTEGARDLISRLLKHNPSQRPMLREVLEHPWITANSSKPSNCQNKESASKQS
Kind of test: Kinobeads assay, Aurora A. It is filed as binding. The following applies: for pIC50: lysate of pervanadate-treated Jurkat cells, read-out: Inhibition values (IC50) Aur A. The method, then:
(§1) The compounds of the present invention as described in the previous examples were tested in a Kinobeads™ assay as described for ZAP-70 (WO-A 2007/137867). Briefly, test compounds (at various concentrations) and the affinity matrix with the immobilized aminopyrido-pyrimidine ligand 24 were added to cell lysate aliquots and allowed to bind to the proteins in the lysate sample. After the incubation time the beads with captured proteins were separated from the lysate. Bound proteins were then eluted and the presence of JAK2 and JAK3 was detected and quantified using specific antibodies in a dot blot procedure and the Odyssey infrared detection system. Dose response curves for individual kinases were generated and IC50 values calculated. Kinobeads™ assays for ZAP-70 (WO-A 2007/137867) and for kinase selectivity profiling (WO-A 2006/134056) have been previously described.
(§2) The affinity matrix was washed two times with 15 mL of 1×DP buffer containing 0.2% NP40 (IGEPAL® CA-630, Sigma, #I3021) and then resuspended in 1×DP buffer containing 0.2% NP40 (3% beads slurry).
(§3) 5×DP buffer 250 mM Tris-HCl pH 7.4, 25% Glycerol, 7.5 mM MgCl2, 750 mM NaCl, 5 mM Na3VO4; filter the 5×DP buffer through a 0.22 μm filter and store in aliquots at −80° C. The 5×DP buffer is diluted with H2O to 1×DP buffer containing 1 mM DTT and 25 mM NaF.
(§4) Stock solutions of test compounds were prepared in DMSO. In a 96 well plate 30 μL solution of diluted test compounds at 5 mM in DMSO were prepared. Starting with this solution a 1:3 dilution series (9 steps) was prepared. For control experiments (no test compound) a buffer containing 2% DMSO was used.
(§5) Cell lysate (approximately 50 mg protein per plate) was thawed in a water bath at room temperature and then stored on ice. To the thawed cell lysate 1×DP 0.8% NP40 buffer containing protease inhibitors (1 tablet for 25 mL buffer; EDTA-free protease inhibitor cocktail; Roche Diagnostics 1873580) was added in order to reach a final protein concentration of 10 mg/mL total protein. The diluted cell lysate was stored on ice. Mixed Molt4/Ramos lysate was prepared by combining one volume of Molt4 lysate and two volumes of Ramos lysate (ratio 1:2).
(§6) To a 96 well filter plate (Multiscreen HTS, BV Filter Plates, Millipore #MSBVN1250) were added per well: 100 μL affinity matrix (3% beads slurry), 3 μL of compound solution, and 50 μL of diluted lysate. Plates were sealed and incubated for 3 hours in a cold room on a plate shaker (Heidolph tiramax 1000) at 750 rpm. Afterwards the plate was washed 3 times with 230 μL washing buffer (1×DP 0.4% NP40). The filter plate was placed on top of a collection 1 plate (Greiner bio-one, PP-microplate 96 well V-shape, 65120) and the beads were then eluted with 20 μL of sample buffer (100 mM Tris, pH 7.4, 4% SDS, 0.00025% bromophenol blue, 20% glycerol, 50 mM DTT). The eluate was frozen quickly at −80° C. and stored at −20° C.
(§7) The kinases in the eluates were detected and quantified by spotting on nitrocellulose membranes and using a first antibody directed against the kinase of interest and a fluorescently labelled secondary antibody (anti-rabbit IRDye™ antibody 800 (Licor, #926-32211). The Odyssey Infrared Imaging system from LI-COR Biosciences (Lincoln, Nebr., USA) was operated according to instructions provided by the manufacturer (Schutz-Geschwendener et al, 2004. Quantitative, two-color Western blot detection with infrared fluorescence. Published May 2004 by LI-COR Biosciences, www.licor.com).
(§8) After spotting of the eluates the nitrocellulose membrane (BioTrace NT; PALL, #BTNT30R) was first blocked by incubation with Odyssey blocking buffer (LICOR, 927-40000) for 1 hour at room temperature. Blocked membranes were then incubated for 16 hours at the temperature shown in Table 5 with the first antibody diluted in Odyssey blocking buffer (LICOR #927-40000). Afterwards the membrane was washed twice for 10 minutes with PBS buffer containing 0.2% Tween 20 at room temperature. […]

For test [2], the target named is T2, Aurora B (Homo sapiens, UniProt Q96GD4).
T2 construct: cell lysates from Jurkat cells (ATCC TIB-152) used; endogenous in cells; host or cells: Jurkat cells (ATCC TIB-152), treated with pervanadate
Kind of test: Kinobeads assay, Aurora B. The following applies: for pIC50: lysate of pervanadate-treated Jurkat cells, read-out: Inhibition values (IC50) Aur B. The format is binding. The method, then: as §1, §2, §3, §4, §5, §6, §7, §8

pIC50: −log10 of the molar value. Some results are limits rather than exact numbers.

T2 sequence (Q96GD4 whole entry): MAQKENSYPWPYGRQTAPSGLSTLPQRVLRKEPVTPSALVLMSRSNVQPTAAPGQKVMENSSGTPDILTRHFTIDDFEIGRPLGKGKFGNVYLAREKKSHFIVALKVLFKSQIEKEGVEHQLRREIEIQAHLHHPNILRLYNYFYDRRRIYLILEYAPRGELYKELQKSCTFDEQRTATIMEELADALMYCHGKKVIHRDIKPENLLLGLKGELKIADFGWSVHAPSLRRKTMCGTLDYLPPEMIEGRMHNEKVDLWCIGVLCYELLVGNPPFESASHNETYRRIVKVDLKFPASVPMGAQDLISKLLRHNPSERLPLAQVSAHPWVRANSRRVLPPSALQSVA

In general, pIC50 refers to the IC50 on a negative log10 scale, so that one unit is a factor of ten. For the molecule `Cn1cc(Nc2ncc3cnn(Cc4cccc(N5CCOCC5=O)c4F)c3n2)cn1` [Example 40, 4-(2-Fluoro-3-((6-((1-methyl-1H-pyrazol-4-yl)amino)-1H-pyrazolo[3,4-d]pyrimidin-1-yl)methyl)phenyl)morpholin-3-one], in test [1], the “JAK3/AurA Fold Selectivity” value is reported as 10-50 Fold and the pIC50 was 6.00 to 7.00. For the same molecule, in test [2], the “JAK3/AurB Fold Selectivity” value is reported as 10-50 Fold and the pIC50 was 6.00 to 7.00.

For `CN(C)CCCn1cc(Nc2ncc3cnn(Cc4cccc(N5CCOCC5=O)c4)c3n2)cn1` [Example 28, 4-(3-((6-((1-(3-(Dimethylamino)propyl)-1H-pyrazol-4-yl)amino)-1H-pyrazolo[3,4-d]pyrimidin-1-yl)methyl)phenyl)morpholin-3-one], in test [1], the “JAK3/AurA Fold Selectivity” value is more than 50 Fold and the pIC50 is 6.00 to 7.00. In test [2], the “JAK3/AurB Fold Selectivity” value is more than 50 Fold and the pIC50 was 6.00 to 7.00.

`Cn1cc(Nc2ncc3cnn(Cc4c(F)ccc(N5CCOCC5)c4F)c3n2)cn1` [Example 38, 1-(2,6-Difluoro-3-morpholinobenzyl)-N-(1-methyl-1H-pyrazol-4-yl)-1H-pyrazolo[3,4-d]pyrimidin-6-amine]: in test [1], the “JAK3/AurA Fold Selectivity” value is 10-50 Fold and the pIC50 is 6.00 to 7.00. In test [2], the “JAK3/AurB Fold Selectivity” value is recorded as 10-50 Fold and the pIC50 is 6.00 to 7.00.

With `OCCn1cc(Nc2ncc3cnn(Cc4cccc(N5CCOCC5)c4F)c3n2)cn1` [Example 39, 2-(4-((1-(2-Fluoro-3-morpholinobenzyl)-1H-pyrazolo[3,4-d]pyrimidin-6-yl)amino)-1H-pyrazol-1-yl)ethanol], in test [1], the “JAK3/AurA Fold Selectivity” value is reported as 10-50 Fold and the pIC50 is 6.00 to 7.00. In test [2], the “JAK3/AurB Fold Selectivity” value is 10-50 Fold and the pIC50 was 6.00 to 7.00.

`CN1CCN(c2cccc(Cn3ncc4cnc(Nc5cnn(C)c5)nc43)c2)CC1` [Example 10, N-(1-Methyl-1H-pyrazol-4-yl)-1-(3-(4-methylpiperazin-1-yl)benzyl)-1H-pyrazolo[3,4-d]pyrimidin-6-amine]: in test [1], the “JAK3/AurA Fold Selectivity” value was 3-10 Fold and the pIC50 is 6.00 to 7.00. In addition, in test [2], the “JAK3/AurB Fold Selectivity” value was 10-50 Fold and the pIC50 was 6.00 to 7.00.

Regarding `N#CCCn1cc(Nc2ncc3cnn(Cc4cc(F)cc(N5CCOCC5=O)c4)c3n2)cn1` [Example 107, 3-(4-((1-(3-fluoro-5-(3-oxomorpholino)benzyl)-1H-pyrazolo[3,4-d]pyrimidin-6-yl)amino)-1H-pyrazol-1-yl)propanenitrile], in test [1], the “JAK3/AurA Fold Selectivity” value was 3-10 Fold and the pIC50 was more than 7.00. Besides, in test [2], the “JAK3/AurB Fold Selectivity” value was 10-50 Fold and the pIC50 was 6.00 to 7.00.

On to `FC(F)Cn1cc(Nc2ncc3cnn(Cc4cccc(N5CCOCC5)c4)c3n2)cn1` [Example 23, N-(1-(2,2-Difluoroethyl)-1H-pyrazol-4-yl)-1-(3-morpholinobenzyl)-1H-pyrazolo[3,4-d]pyrimidin-6-amine], for which, in test [1], the “JAK3/AurA Fold Selectivity” value was 3-10 Fold and the pIC50 was 6.00 to 7.00. In addition, in test [2], the “JAK3/AurB Fold Selectivity” value was more than 50 Fold and the pIC50 is 5.00 to 6.00.

`Cn1cc(Nc2ncc3cnn(Cc4cccc(N5CC6(COC6)C5)c4)c3n2)cn1` [Example 89, 1-(3-(2-oxa-6-azaspiro[3.3]heptan-6-yl)benzyl)-N-(1-methyl-1H-pyrazol-4-yl)-1H-pyrazolo[3,4-d]pyrimidin-6-amine]: in test [1], the “JAK3/AurA Fold Selectivity” value is reported as 10-50 Fold and the pIC50 is 6.00 to 7.00. Besides, in test [2], the “JAK3/AurB Fold Selectivity” value is given as more than 50 Fold and the pIC50 was 5.00 to 6.00.

As for `Cn1cc(Nc2ncc3cnn(Cc4cccc(N5CCCCC5)c4)c3n2)cn1` [Example 8, N-(1-Methyl-1H-pyrazol-4-yl)-1-(3-(piperidin-1-yl)benzyl)-1H-pyrazolo[3,4-d]pyrimidin-6-amine], in test [1], the “JAK3/AurA Fold Selectivity” value was 10-50 Fold and the pIC50 was 5.00 to 6.00. Also, in test [2], the “JAK3/AurB Fold Selectivity” value is recorded as 10-50 Fold and the pIC50 was 5.00 to 6.00.

`Cn1cc(Nc2ncc3cnn(Cc4cccc(-c5cnn(CC(N)=O)c5)c4)c3n2)cn1` [Example 120, 2-(4-(3-((6-((1-methyl-1H-pyrazol-4-yl)amino)-1H-pyrazolo[3,4-d]pyrimidin-1-yl)methyl)phenyl)-1H-pyrazol-1-yl)acetamide]: in test [1], the “JAK3/AurA Fold Selectivity” value is listed as 10-50 Fold and the pIC50 was 6.00 to 7.00. Besides, in test [2], the “JAK3/AurB Fold Selectivity” value is on record as more than 50 Fold and the pIC50 was 5.00 to 6.00.

Consider `CC(C)n1cc(-c2cccc(Cn3ncc4cnc(Nc5cnn(C)c5)nc43)c2)cn1` [Example 117, 1-(3-(1-isopropyl-1H-pyrazol-4-yl)benzyl)-N-(1-methyl-1H-pyrazol-4-yl)-1H-pyrazolo[3,4-d]pyrimidin-6-amine], for which, in test [1], the “JAK3/AurA Fold Selectivity” value is 3-10 Fold and the pIC50 is 6.00 to 7.00. In test [2], the “JAK3/AurB Fold Selectivity” value is recorded as more than 50 Fold and the pIC50 was not above 5.00.

For `Cn1cc(Nc2ncc3cnn(Cc4cccc(CN5CCOCC5)c4)c3n2)cn1` [Example 7, N-(1-Methyl-1H-pyrazol-4-yl)-1-(3-(morpholinomethyl)benzyl)-1H-pyrazolo[3,4-d]pyrimidin-6-amine], in test [1], the “JAK3/AurA Fold Selectivity” value is 10-50 Fold and the pIC50 was 6.00 to 7.00. Moreover, in test [2], the “JAK3/AurB Fold Selectivity” value is given as 10-50 Fold and the pIC50 is 6.00 to 7.00.

With `Cn1cc(Nc2ncc3cnn(Cc4cccc(N5CCC(=O)CC5)c4)c3n2)cn1` [Example 108, 1-(3-((6-((1-methyl-1H-pyrazol-4-yl)amino)-1H-pyrazolo[3,4-d]pyrimidin-1-yl)methyl)phenyl)piperidin-4-one], in test [1], the “JAK3/AurA Fold Selectivity” value is 3-10 Fold and the pIC50 is 6.00 to 7.00. Also, in test [2], the “JAK3/AurB Fold Selectivity” value is listed as 10-50 Fold and the pIC50 is 5.00 to 6.00.

For `CN(C)CC(O)Cn1cc(Nc2ncc3cnn(Cc4cccc(N5CCOCC5)c4)c3n2)cn1` (stereo not drawn) [Example 33, 1-(Dimethylamino)-3-(4-((1-(3-morpholinobenzyl)-1H-pyrazolo[3,4-d]pyrimidin-6-yl)amino)-1H-pyrazol-1-yl)propan-2-ol], in test [1], the “JAK3/AurA Fold Selectivity” value is reported as more than 50 Fold and the pIC50 is 5.00 to 6.00. Also, in test [2], the “JAK3/AurB Fold Selectivity” value is reported as 10-50 Fold and the pIC50 is 5.00 to 6.00.

Turning to `C[C@@H]1COCCN1c1cccc(Cn2ncc3cnc(Nc4cnn(C)c4)nc32)c1` [Example 113, (R)-N-(1-methyl-1H-pyrazol-4-yl)-1-(3-(3-methylmorpholino)benzyl)-1H-pyrazolo[3,4-d]pyrimidin-6-amine], in test [1], the “JAK3/AurA Fold Selectivity” value was more than 50 Fold and the pIC50 was 5.00 to 6.00. Moreover, in test [2], the “JAK3/AurB Fold Selectivity” value was more than 50 Fold and the pIC50 was 5.00 to 6.00.
